“Also recorded” adds a separate entry of the source.
Assays:
[1] = test system: CCI-SN rats; assay type: in vivo, rat; conditions: rat, in vivo
Experimental: Rats are anaesthetized with sodium pentobarbital (50 mg/kg i.p.). Unilateral CCI-SN is performed under direct visual control using a Zeiss microscope (10-25×) essentially as described by Bennett and Xie (G. J. Bennett et al., Pain, 33 (1988) 87-107).
Mechanical sensitivity is determined with a graded series of von Frey filaments (Bioseb, Bordeaux, France; bending force: 0.07-60.0 g). The stimuli are applied within the SN territory (midplantar surface of the left hindpaw) three times at the nerve-injured side (ipsilateral, left) and then at the contralateral side for a total of 6 applications of each filament per rat, always beginning with the filament producing the lowest force. The von Frey filaments are applied at least 3 seconds after the rats returned to their initial resting state. For each session, the complete series of von Frey filaments is tested in increasing force order. The minimal force filament causing a hindpaw withdrawal response allows determination of the mechanical response threshold. The 60 g filament is the cut-off threshold.
(§1) For studying the effects of acute treatment with tapentadol in CCI-SN rats, tapentadol (1, 3 and 10 mg/kg i.p.) or its vehicle (0.9% NaCl i. p.) was injected acutely 14 days after surgery. Sham-operated rats were treated in parallel. Pressure threshold values to trigger nocifensive responses to von Frey filaments application onto the plantar surface of ipsilateral hindpaw were determined at various times after acute injection of tapentadol or saline. Cut-off was fixed at 60 g pressure.
(§2) For studying the effects of subchronic treatment with tapentadol in CCI-SN rats, starting on day 16 (Time=D) after surgery, they received i.p. injections of tapentadol (10 mg/kg, twice daily, at 10:00 AM and 6:00 PM) or saline (at the same day times as the drug) for four days. On the following day (day 20 after surgery), both tapentadol- and saline-pretreated CCI-SN rats were i.p. injected with Tapentadol (10 mg/kg; Time=0) and then subjected to von Frey filaments'test applied to ipsilateral hindpaw for determination of pressure threshold values at various times thereafter.
In a second part of this study (B), unilateral chronic constriction injury to the sciatic nerve was performed two weeks before acute treatment with reboxetine (10 mg/kg i.p.), tapentadol (10 mg/kg i.p.) or saline (0.5 ml i.p./rat). Pressure threshold values were then determined at various times using von Frey filaments test applied to ipsilateral hindpaw.
Morphine (1, 3 and 10 mg/kg s.c.) or its vehicle (0.9% NaCl) was injected acutely 14 days after CCI-SN surgery. Sham-operated rats were treated in parallel. Pressure threshold values to trigger nocifensive responses to von Frey filaments application onto the plantar surface of ipsilateral hindpaw were determined at various times after acute injection of morphine or saline.
14 days after CCI-SN surgery, rats were injected with reboxetine (10 mg/kg i.p.) or its vehicle (0.9% NaCl) followed, 15 min later, by morphine (1 mg/kg s.c.) or its vehicle (0.9% NaCl) and subjected to von Frey filament tests for the following 4 hours. Sham-operated rats were treated in parallel.
The results are depicted in FIG. 11.

[2] = test system: CCI-ION rats; assay type: in vivo, rat; conditions: rat, in vivo
Experimental: Rats are anaesthetized with sodium pentobarbital (50 mg/kg i.p.). Unilateral CCI-ION is performed under direct visual control using a Zeiss microscope (10-25×) essentially as described by Vos et al (Vos B P, Strassman A M, Maciewicz R J (1994), J. Neurosci. 14: 2708-2723). Briefly, the head is fixed in a Horsley-Clarke stereotaxic frame and a midline scalp incision is made, exposing skull and nasal bone. The edge of the orbit, formed by the maxillary, frontal, lacrimal, and zygomatic bones, is dissected free. The orbital contents are gently deflected to give access to the infraorbital nerve which is dissected free at its most rostral extent in the orbital cavity, just caudal to the infraorbital foramen. Only 5 mm of the nerve can be freed (Vos et al.), providing the space for placement of two chromic catgut (5-0) ligations tied loosely (with about 2 mm spacing) around it. […] Finally, scalp incision is closed using silk sutures (4-0). In sham-operated rats, the ION is exposed using the […] procedure, but is not ligated.
Mechanical sensitivity is determined with a graded series of eleven von Frey filaments (Bioseb, Bordeaux, France). The filaments produce a bending force of 0.07, 0.16, 0.40, 0.60, 1.00, 2.00, 4.00, 6.00, 8.00, 10.00 and 12.00 g, respectively. The stimuli are applied within the ION territory (vibrissae pad) three times at the nerve-injured side and then at the contralateral side for a total of 6 applications of each filament per rat, always beginning with the filament producing the lowest force. The von Frey filaments are applied at least 3 seconds after the rats returned to their initial resting state. For each session, the complete series of von Frey filaments is tested in increasing force order.
The latter responses represent the highest scores in the rank-ordered response scoring system initially described by Vos et al. The minimal force filament causing at least one among these responses (to at least 2 out of the 3 an each side) allows determination of the mechanical response threshold. The 12.00 g filament is the cut-off threshold (no tissue-injury occurs at this pressing force).
as §1, with “CCI-ION” for “CCI-SN”, “(1 or” for “(1, 3 and”, “12” for “60”
as §2, with “in CCI-ION” for “in CCI-SN”, “Frey filaments' test” for “Frey filaments'test”
14 days after CCI-ION surgery, rats were injected with reboxetine (10 mg/kg i.p.) or its vehicle (0.9% NaCl) followed, 15 min later, by morphine (3 mg/kg s.c.) or its vehicle (0.9% NaCl) and subjected to von Frey filament tests for the following 4 hours. Sham-operated rats were treated in parallel.

[3] = test system: CCI-ION rats; conditions: rat, in vivo; cited from earlier work
[4] = test system: CCI-SN rats; conditions: rat, in vivo; cited from earlier work
[5] = test system: BDNF-induced allodynia; assay: Mechanical allodynia induced by intrathecal administration of BDNF in healthy rats (von Frey filaments test); assay type: in vivo, rat
Experimental: In a first part of this study, BDNF (0.3 ng in 25 μl of saline per rat) or saline (25 μl) was injected intrathecally in adult male rats slightly anesthetized with isoflurane (according to Mestre et al. (1994), J. Pharmacol. Toxicol. Meth., 32, 197-200), and animals were subjected to von Frey filaments test applied to hindpaws at various times thereafter.
In a second part of this study, tapentadol (3 or 10 mg/kg i.p.) or saline was administered to rats on the 7th day (Time=0 on abscissa) after intrathecal injection of BDNF (Time=C) as described above. Pressure threshold values were determined using von Frey filaments test applied to hindpaws.
In a first part of this study (A), reboxetine (10 mg/kg i.p.; mesylate, Ascent Scientific, Bristol, UK), tapentadol (10 mg/kg i.p.) or saline (0.5 ml i.p./rat) was injected on the 7th day after intrathecal administration of BDNF (0.3 ng in 25 μl of saline per rat). Pressure threshold values were determined at various times thereafter using von Frey filaments test applied to hindpaws.

[6] = test system: BDNF-induced allodynia; assay: as above; assay type: in vivo, rat; conditions: BDNF 0.3 ng i.t.; up to 11 days; data not shown

## CN1CC[C@]23c4c5ccc(O)c4O[C@H]2[C@@H](O)C=C[C@H]3[C@H]1C5 [morphine]
[1]
  anti-allodynic effect (pressure threshold to trigger hindpaw withdrawal): strongly anti-allodynic
  increase in pressure threshold values: only discrete increases
  persistence of full reversal: at least one hour
  reversal of CCI-SN-induced mechanical allodynia: fully reversed; also recorded: not completely reversed
  time after injection at which full reversal was reached: 30 min
[2]
  anti-allodynic effect: only a discrete effect
  maximal increase in pressure threshold value as share of that determined in healthy intact rats: 20%
[3]
  effect on mechanical allodynia generated by CCI-ION: ineffective
[4]
  effect on mechanical allodynia generated by CCI-SN: significantly attenuate

## CCOc1ccccc1OC(c1ccccc1)C1CNCCO1 (centres unmarked) [reboxetine, reference compound]
[1]
  anti-allodynic effect compared to tapentadol (10 mg/kg i.p.): developed more slowly and was much less pronounced
  increase in pressure threshold values: only discrete increases
  reversal of CCI-SN-induced decrease in pressure threshold values: significant but only partial reversal
[2]
  anti-allodynic effect: completely inactive
[5]; rat, in vivo
  maximal increase in pressure threshold values relative to that caused by 10 mg/kg i.p. of tapentadol: only one third
  reversal of mechanical allodynia caused by intrathecal BDNF: significant but partial reversal
  time at which the maximal increase in pressure threshold was reached: 45 min

## NC1=N[C@H](O)[C@H]2[C@H]3O[C@]4(O)O[C@@H]([C@@H](O)[C@@]2(N1)[C@@H]4O)[C@]3(O)CO [tetrodotoxin]
[3]
  effect on mechanical allodynia generated by CCI-ION: ineffective
[4]
  effect on mechanical allodynia generated by CCI-SN: significantly attenuate

B1: BDNF: neurotrophic factor injected intrathecally (0.3 ng per rat) to induce mechanical allodynia (protein, UniProt P23560 19-247, looked up)
Neurotrophic factor BDNF …: APMKEANIRGQGGLAYPGVRTHGTLESVNGPKAGSRGLTSLADTFEHVIEELLDEDQKVRPNEENNKDADLYTSRVMLSSQVPLEPPLLFLLEEYKNYLDAANMSMRVRRHSDPARRGELSVCDSISEWVTAADKKTAVDMSGGTVTVLEKVPVSKGQLKQYFYETKCNPMGYTKEGCRGIDKRHWNSQCRTTQSYVRALTMDSKKRIGWRFIRIDTSCVCTLTIKRGR
[6]
  pressure threshold value within the vibrissal pad: ~12 g
  pressure threshold values, von Frey filaments applied within the vibrissal pad: not significantly modified
[5]; BDNF 0.3 ng i.t.
  hindpaw pressure threshold values from day 4 to day 8 after injection: as low as those previously determined two weeks after surgery in CCI-SN rats
  hindpaw pressure threshold values on the 11th day relative to untreated healthy rats: only half
[5]; BDNF 0.3 ng i.t., single injection, healthy rats
  pressure threshold value to trigger hindpaw withdrawal after intrathecal injection: progressive and long lasting decrease

— patent US20190274974A1, “Treatment of Pain Associated with Trigeminal Neuralgia” (priority 2011, published 2019)
